Columns and labels:
[1] = system: Rattus norvegicus; assay: Distribution of copper per 100 ml of Wistar rat blood at 5 mg/kg, iv after 1 hr; format: ADME, organism-based; set-up: dose 5 mg/kg, route intravenous; details: in vivo
[2] = system: Rattus norvegicus; assay: Decrease in copper concentration in Wistar rat CSF at 5 mg/kg, iv after 1 hr relative to control; format: functional; set-up: scale not given: the % may be the effect or the level left

Ct [1] [µg]	SMILES	Activity [2] [%]
142	c1cc(CN2CCCNCCNCCCNCC2)ccc1CN1CCCNCCNCCCNCC1 [PLERIXAFOR]	70
126	Oc1c(I)cc(Cl)c2cccnc12 [CLIOQUINOL]	70
135	CC(C)(S)[C@@H](N)C(=O)O [PENICILLAMINE]	

Reference: ChEMBL document CHEMBL1147818, “1,1'-Xylyl bis-1,4,8,11-tetraaza cyclotetradecane: a new potential copper chelator agent for neuroprotection in Alzheimer's disease. Its comparative effects with clioquinol on rat brain copper distribution” (Bioorg Med Chem Lett, 2006)
